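The compound was tested at five concentrations on cells cultured in 96-well plates, with a 48-hour exposure period. GI50 = concentration required for 50% inhibition of growth.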 Active and inactive are the calls of the source. Cut-off read from the data, not from the text of the source: active = GI50 up to about 1.1 µM and inactive = higher.
Tests used:
Assay in all cases: NCI-60 cell line screen, 48 h
HOP-62 = tested on: HOP-62
RXF 393 = tested on: RXF 393
MOLT-4 = tested on: MOLT-4
U-251 = tested on: U-251
PC-3 = tested on: PC-3
SN12C = tested on: SN12C
SW-620 = tested on: SW-620
TK-10 = tested on: TK-10
OVCAR-8 = tested on: OVCAR-8
Malme-3M = tested on: Malme-3M
RPMI-8226 = tested on: RPMI-8226
EKVX = tested on: EKVX
CAKI-1 = tested on: CAKI-1
HT-29 = tested on: HT-29
ACHN = tested on: ACHN
HCT-116 = tested on: HCT-116
M14 = tested on: M14
SNB-19 = tested on: SNB-19
UACC-257 = tested on: UACC-257
UO-31 = tested on: UO-31

| Compound | GI50 (HOP-62) | GI50 (RXF 393) | GI50 (MOLT-4) | GI50 (U-251) | GI50 (PC-3) | GI50 (SN12C) | GI50 (SW-620) | GI50 (TK-10) | GI50 (OVCAR-8) | GI50 (Malme-3M) | GI50 (RPMI-8226) | GI50 (EKVX) | GI50 (CAKI-1) | GI50 (HT-29) | GI50 (ACHN) | GI50 (HCT-116) | GI50 (M14) | GI50 (SNB-19) | GI50 (UACC-257) | GI50 (UO-31) |
| --- | --- | --- | --- | --- | --- | --- | --- | --- | --- | --- | --- | --- | --- | --- | --- | --- | --- | --- | --- | --- |
| Cc1ccc2ccccc2c1CSc1nc(N)nc2c1ncn2CC(C)C | 28.9 µM (inactive) | 10.7 µM (inactive) | 4.73 µM (inactive) | 18.2 µM (inactive) | 13.9 µM (inactive) | 40 µM (inactive) | 24.7 µM (inactive) | 29.6 µM (inactive) | 40.4 µM (inactive) | 9.31 µM (inactive) | 5.65 µM (inactive) | 13.6 µM (inactive) | 17 µM (inactive) | 9.14 µM (inactive) | 16.4 µM (inactive) | 9.82 µM (inactive) | 17.3 µM (inactive) | 48.3 µM (inactive) | 11.7 µM (inactive) | 2.79 µM (inactive) |
| CC[C@@]1(O)C(=O)OCc2c1cc1n(c2=O)Cc2cc3c(NC(=O)CN)cccc3nc2-1 | 0.109 µM (active) | < 0.0463 µM (active) | < 0.0199 µM (active) | 0.0906 µM (active) | 4.92 µM (inactive) | < 0.0115 µM (active) | 2.07 µM (inactive) | 10.4 µM (inactive) | 0.392 µM (active) | 1.41 µM (inactive) | 1.88 µM (inactive) | 16.6 µM (inactive) | < 0.01 µM (active) | 2.69 µM (inactive) | 0.0521 µM (active) | 0.441 µM (active) | 0.098 µM (active) | 0.154 µM (active) | 1.43 µM (inactive) | 0.191 µM (active) |
| C[C@@H]1CC[C@@]2(NC1)O[C@H]1C[C@H]3[C@@H]4CC[C@H]5C[C@@H](O)CC[C@]5(C)[C@H]4CC[C@]3(C)[C@H]1[C@@H]2C | 64.4 µM (inactive) | > 100 µM (inactive) | > 100 µM (inactive) | 61.2 µM (inactive) | 82.4 µM (inactive) | 55.5 µM (inactive) | 88.9 µM (inactive) | 35.3 µM (inactive) | 21.5 µM (inactive) | > 100 µM (inactive) | 31.2 µM (inactive) | > 100 µM (inactive) | > 100 µM (inactive) | 57.4 µM (inactive) | 33.6 µM (inactive) | 45.5 µM (inactive) | 65.2 µM (inactive) | 30.6 µM (inactive) | > 100 µM (inactive) | 42.3 µM (inactive) |
| CC(=O)OC[C@@H]1[C@H]2CC[C@]3(C)[C@@H](OC(C)=O)CC[C@H]3[C@@H]2CC[C@H]1C1(C)SCCS1 | > 25 µM (inactive) | > 25 µM (inactive) | > 25 µM (inactive) | > 25 µM (inactive) | > 25 µM (inactive) | > 25 µM (inactive) | > 25 µM (inactive) | > 25 µM (inactive) | > 25 µM (inactive) | > 25 µM (inactive) | > 25 µM (inactive) | > 25 µM (inactive) | > 25 µM (inactive) | > 25 µM (inactive) | > 25 µM (inactive) | > 25 µM (inactive) | > 25 µM (inactive) | > 25 µM (inactive) | > 25 µM (inactive) | > 25 µM (inactive) |
| O=C(O)CCC[C@]1(O)O[C@@]2(CCCC2=O)[C@]2(O)CCC[C@@]21O | > 100 µM (inactive) | > 100 µM (inactive) | > 100 µM (inactive) | > 100 µM (inactive) | > 100 µM (inactive) | > 100 µM (inactive) | > 100 µM (inactive) | > 100 µM (inactive) | > 100 µM (inactive) | > 100 µM (inactive) | > 100 µM (inactive) | > 100 µM (inactive) | 26.5 µM (inactive) | > 100 µM (inactive) | > 100 µM (inactive) | > 100 µM (inactive) | > 100 µM (inactive) | > 100 µM (inactive) | > 100 µM (inactive) | > 100 µM (inactive) |

— ChEMBL document CHEMBL1201862, “PubChem BioAssay data set” (2004)
